# Legend:
# [1] = test system: sheep testicular hyaluronidase; experiment: hyaluronidase inhibition (hyaluronic acid hydrolysis); format: biochemical; details: pH 5.5, 10 minutes preincubation, 30 minutes at room temperature
# Experimental: Hyaluronidase activity was quantitatively determined by measuring the extent of hyaluronic acid hydrolysis (i.e., the concentration of N-acetylglucosamine-reactive material formed from enzyme activity). Reaction mixtures (0.25 ml) containing the following were prepared: test compound (variable concentration); 0.1 M sodium acetate; 0.15 M sodium chloride; pH adjusted to 5.5; 7.2 units sheep testicular hyaluronidase (Sigma, Type III; H-2251) contained in an acetate buffer; 0.3 mg/ml hyaluronic acid (Sigma, from bovine vitreous humor; H-7630). The enzyme was preincubated with the test agent (1 mg/ml for screening purposes) for 10 minutes before starting the reaction by the addition of hyaluronic acid. The enzyme reaction was determined using the method of Aronson and Davidson (J. Biol. Chem. 241 437-440 (1967)). The reaction mixture was incubated for 30 minutes at room temperature. The reaction product was determined calorimetrically with p-dimethylaminobenzaldehyde (Reissig et al., J. Biol. Chem. 217 959-966 (1965)) by measuring the absorbance at 545 nm.
# The reversibility of the hyaluronidase was determined by evaluating enzyme activity at different levels of enzyme (Ackermann and Potter, Proc. Soc. Exp. Biol. Med. 72 1-9 (1949)).
# Lactobacillus gasseri = experiment: growth of normal vaginal flora bacterium in culture; format: cell-based; details: 0.5 mg/ml, anaerobic, 37° C.
# Experimental: This example illustrates the effect of the inhibitory agents of this invention on the normal vaginal flora. Lactobacillus gasseri, which is found in normal vaginal flora, was obtained from the American Type Culture Collection (Rockville, Md.) and cultured under anaerobic conditions at 37° C. in the presence of the desired test agents. Control samples without added test agents were also run. Samples were collected at twenty minute intervals starting at 120 minutes after the start of incubation through 240 minutes. The absorbance at 550 nm was used to estimate the cell density and inhibitory effects. Nonoxynol-9 was also evaluated for comparison purposes.
# MT2 cells = experiment: toxicity towards host cells of the virus assays; format: cell-based; details: concentration ranges used in the virus assays
# Experimental: Serial dilutions of the test compounds (ranging from 0.1 μg/ml to 1.0 mg/ml) were added to HIV-1 virus such that 50 μl inoculum produced between 70 to 100 syncytia per well in untreated wells containing MT2 cells. The mHV-1 used was strain IIIs propagated in, and harvested from, a T4-lymphobastoid cell line. Each serial dilution of the test compound with virus was placed in each of three wells containing MT2 cells. The test compound alone was added to a fourth well containing MT2 cells to test for possible cytotoxicity. Triplicate virus control samples (no added test compounds but containing the equivalent amounts of the RPMI medium) were also included.
# HIV-1 virus = details: general statement, no assay details; cited from earlier work
# [2] = test system: bovine papillomavirus type I; details: general statement; cited from earlier work
substance,measurement,setting,value
Nonoxynol-9,IC50,[1],inactive
same,inhibition of growth of Lactobacillus gasseri,Lactobacillus gasseri,about 60%
same,toxicity towards the host cells,MT2 cells,did show cytotoxic effects
same,inhibition of the enveloped virus HIV (statement),HIV-1 virus,inhibits
same,inhibition of the non-enveloped papillomavirus (statement),[2],not
